Blank lines part the entries; values can stand above or below the compound they belong to.
Assays:
[1] = target: T1, IAPP (Homo sapiens, UniProt P10997); assay: MS (electrospray mass spectrometry) binding assay for IAPP
T1 construct: which is a 37 amino acid peptide, derived from a larger precursor peptide, called pro-IAPP
T1 sequence (P10997 34-70 limits assumed): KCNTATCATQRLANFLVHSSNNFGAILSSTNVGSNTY

[2] = target: T2, Aβ1-40 (Homo sapiens, UniProt P05067); assay: MS (electrospray mass spectrometry) binding assay for Aβ40
T2 construct: most is normally secreted as a 40 (“Aβ1-40”) or 42 (“Aβ1-42”) amino acid peptide
Source text: (§1) The ability of a therapeutic compound of the invention to inhibit an interaction between an amyloidogenic protein and a glycoprotein or proteoglycan constituent of a basement membrane can be assessed by an in vitro binding assay, such as that described in U.S. Pat. No. 5,164,295, the contents of which are hereby incorporated by reference. Alternatively, the ability of a compound to bind to an amyloidogenic protein or to inhibit the binding of a basement membrane constituent (e.g., HSPG) to an amyloidogenic protein (e.g., Aβ) can be measured using a mass spectrometry assay where soluble protein, e.g., Aβ, IAPP, β2M is incubated with the compound. A compound which binds to, e.g., Aβ, will induce a change in the mass spectrum of the protein. Exemplary protocols for a mass spectrometry assay employing Aβ and IAPP can be found in the Examples, the results of which are provided in Table 3. The protocol can readily be modified to adjust the sensitivity of the data, e.g., by adjusting the amount of protein and/or compound employed. Thus, e.g., binding might be detected for test compounds noted as not having detectable binding employing less sensitive test protocols.
(§2) The test compounds were synthesized and screened by mass spectrometry (“MS”) assays, except for selected compounds which were purchased from a commercial source. The MS assay gives data on the ability of compounds to bind to proteins, in this example, to β-amyloid and IAPP.
(§3) The pH value of each sample was adjusted to 7.4 (±0.2) by addition of 0.1% aqueous sodium hydroxide. The solutions were then analyzed by electrospray ionization mass spectrometry using a Waters ZQ 4000 mass spectrometer. Samples were introduced by direct infusion at a flow-rate of 25 μL/min within 2 hr. after sample preparation. The source temperature was kept at 70° C. and the cone voltage was 20 V for all the analysis. Data were processed using Masslynx 3.5 software. The MS assay gives data on the ability of compounds to bind to soluble Aβ, whereas the ThT, EM and CD assays give data on inhibition of fibrillogenesis. In Table 3, a blank box means that a value was not determined for that compound in that assay.

[3] = target: T1, IAPP; assay: MS (electrospray mass spectrometry) binding assay for IAPP; details: Table 3C; 20 μM Aβ peptide, 100 μM compound (so in the source)
Source text: as §1, §2
as §3, with “In the MS assay for Aβ40, samples were prepared as aqueous solutions (adding 20% ethanol if necessary to solubilize in water), 200 μM of a test compound and 20 μM of solubilized Aβ40, or 400 μM of a test compound and 40 μM of solubilized Aβ40. The pH” for “The pH”
The key below describes the codes used in Table 3A to quantify the binding based on the intensity of the absorption.

[4] = Table 3B, 30 μM Aβ peptide, 150 μM compound (so in the source)
[5] = Table 3B, 30 μM Aβ peptide, 150 μM compound
[6] = Table 3C, 20 μM Aβ peptide, 100 μM compound
[7] = Table 3D, 40 μM Aβ peptide, 400 μM compound (so in the source)
[8] = Table 3D, 40 μM Aβ peptide, 400 μM compound

T2 sequence (P05067 672-711 limits assumed): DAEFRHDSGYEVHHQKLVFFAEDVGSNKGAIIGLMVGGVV

MS binding IAPP [1, 4]: +++ (60-100% binding=(+++))
MS binding Aβ1-40 [2, 5]: ++ (40-59% binding=(++))
Structure (SMILES): CC(CCNC12CC3CC(CC(C3)C1)C2)S(=O)(=O)O (stereo not shown) [JH, 4-(adamantyl)amino-2-butanesulfonic acid]

MS binding IAPP [3]: +++ (75-100% binding=(+++))
MS binding Aβ1-40 [2, 6]: ++ (40-74% binding=(++))
Structure (SMILES): CC(CCNC1CC2CCC1C2)S(=O)(=O)O (stereo not shown) [JJ, 4-(bicyclo[2.2.1]hept-2-ylamino)-2-butanesulfonic acid]

MS binding IAPP [3]: ++ (40-74% binding=(++))
MS binding Aβ1-40 [2, 6]: + (20-39% binding=(+))
Structure (SMILES): CC(CCNC1CCCc2ccccc21)S(=O)(=O)O (stereo not shown) [JF, 4-(1,2,3,4-tetrahydro-1-naphthylamino)-2-butanesulfonic acid]

MS binding IAPP [1, 7]: − (<20%=(−))
MS binding Aβ1-40 [2, 8]: + (20-39% binding=(+))
Structure (SMILES): Nc1ccc(NCCCS(=O)(=O)O)cc1 [HM]

MS binding IAPP [3]: + (20-39% binding=(+))
Structure (SMILES): CN(C)CCCCS(=O)(=O)O [LH, 4-Dimethylamino-1-butanesulfonic acid]

MS binding IAPP [3]: ++ (40-74% binding=(++))
MS binding Aβ1-40 [2, 6]: + (20-39% binding=(+))
Structure (SMILES): CC(CCN(C)C)S(=O)(=O)[O-].[Na+] (stereo not shown) [JO, 4-(dimethylamino)-2-butanesulfonic acid]

MS binding IAPP [1, 4]: +++ (60-100% binding=(+++))
MS binding Aβ1-40 [2, 5]: ++ (40-59% binding=(++))
Structure (SMILES): CC(CCN)S(=O)(=O)O (stereo not shown) [JR, 4-amino-2-butanesulfonic acid]

MS binding IAPP [3]: + (20-39% binding=(+))
MS binding Aβ1-40 [2, 6]: ++ (40-74% binding=(++))
Structure (SMILES): CCCCCCCCCNCCC(C)S(=O)(=O)[O-].[Na+] (stereo not shown) [JN, 4-(nonylamino)-2-butanesulfonic acid]

MS binding IAPP [3]: +++ (75-100% binding=(+++))
Structure (SMILES): O=S(=O)(O)CC(O)CNC1CCCc2ccccc21 (stereo not shown) [JZ, 2-hydroxy-3-(1,2,3,4-tetrahydronaphthalen-1-ylamino)propane-1-sulfonic acid]

Structure (SMILES): O=S(=O)([O-])CCC[N+]12CCC(CC1)CC2 [JM]
MS binding IAPP [3]: + (20-39% binding=(+))
MS binding Aβ1-40 [2, 6]: − (<20%=(−))

MS binding IAPP [3]: ++ (40-74% binding=(++))
Structure (SMILES): CCCC(CO)NCC(O)CS(=O)(=O)O (stereo not shown)

MS binding IAPP [3]: ++ (40-74% binding=(++))
MS binding Aβ1-40 [2, 6]: + (20-39% binding=(+))
Structure (SMILES): C[C@H](NCCCS(=O)(=O)O)c1ccccc1 [JA]

MS binding IAPP [3]: +++ (75-100% binding=(+++))
MS binding Aβ1-40 [2, 6]: − (<20%=(−))
Structure (SMILES): C[C@H]([C@@H](O)c1ccccc1)N(C)CCCS(=O)(=O)O [IZ]

MS binding IAPP [3]: +++ (75-100% binding=(+++))
Structure (SMILES): CCCCCCCCNCCCCS(=O)(=O)O [LJ, 4-(octylamino)-1-butanesulfonic acid]

MS binding IAPP [1, 4]: +++ (60-100% binding=(+++))
MS binding Aβ1-40 [2, 5]: ++ (40-59% binding=(++))
Structure (SMILES): C[C@@H](NCCCS(=O)(=O)O)c1ccccc1 [IY]

MS binding IAPP [1, 7]: + (20-39% binding=(+))
MS binding Aβ1-40 [2, 8]: ++ (40-74% binding=(++))
Structure (SMILES): O=S(=O)(O)CCCn1cccc1 [HV]

MS binding IAPP [3]: +++ (75-100% binding=(+++))
MS binding Aβ1-40 [2, 6]: ++ (40-74% binding=(++))
Structure (SMILES): COc1ccccc1CNCCCS(=O)(=O)O [IW]

MS binding IAPP [1, 7]: − (<20%=(−))
MS binding Aβ1-40 [2, 8]: ++ (40-74% binding=(++))
Structure (SMILES): O=S(=O)(O)CCCn1ccnc1 [HR]

MS binding IAPP [1, 4]: +++ (60-100% binding=(+++))
MS binding Aβ1-40 [2, 5]: +++ (60-100% binding=(+++))
Structure (SMILES): CC(CCNC1C2CC3CC(C2)CC1C3)S(=O)(=O)O (stereo not shown) [JI, 4-(2-adamantyl)amino-2-butanesulfonic acid]

MS binding IAPP [3]: + (20-39% binding=(+))
Structure (SMILES): CN(C)CCS(=O)(=O)O [KQ]

MS binding IAPP [3]: ++ (40-74% binding=(++))
MS binding Aβ1-40 [2, 6]: + (20-39% binding=(+))
Structure (SMILES): CCOc1ccccc1CNCCCS(=O)(=O)O [JD]

MS binding IAPP [3]: ++ (40-74% binding=(++))
Structure (SMILES): CCNCCCCS(=O)(=O)O [LE, 4-(ethylamino)-1-butanesulfonic acid]

MS binding IAPP [3]: + (20-39% binding=(+))
Structure (SMILES): CC(CCN1CCCCC1)S(=O)(=O)O (stereo not shown) [JS, 4-piperidin-1-yl-2-butanesulfonic acid]

Structure (SMILES): O=S(=O)([O-])CCCC[N+]12CCC(CC1)CC2 [LF]
MS binding IAPP [3]: + (20-39% binding=(+))

MS binding IAPP [3]: ++ (40-74% binding=(++))
Structure (SMILES): CCCC(CO)NCCCCS(=O)(=O)O (racemic) [LL, 4-[(dl)-1-hydroxy-2-pentyl]amino-1-butanesulfonic acid]

Structure (SMILES): O=S(=O)(O)CCCNC1CN2CCC1CC2 (stereo not shown) [HQ]
MS binding Aβ1-40 [2, 8]: + (20-39% binding=(+))

Structure (SMILES): CCCCCCNC(=O)NCCCS(=O)(=O)[O-].[Na+] [AI]
MS binding Aβ1-40 [2, 5]: +++ (60-100% binding=(+++))

MS binding IAPP [3]: +++ (75-100% binding=(+++))
Structure (SMILES): O=S(=O)(O)CCCCNC12CC3CC(CC(C3)C1)C2 [LI, 4-(adamantyl)amino-1-butanesulfonic acid]

MS binding IAPP [3]: ++ (40-74% binding=(++))
Structure (SMILES): CCNCC(O)CS(=O)(=O)O (stereo not shown) [JU, 3-(ethylamino)-2-hydroxy-1-propanesulfonic acid]

MS binding IAPP [3]: + (20-39% binding=(+))
Structure (SMILES): O=S(=O)(O)CCCNC(Cc1ccccc1)c1ccccc1 (stereo not shown) [JC]

MS binding IAPP [3]: +++ (75-100% binding=(+++))
MS binding Aβ1-40 [2, 6]: ++ (40-74% binding=(++))
Structure (SMILES): O=S(=O)(O)CCCNCc1ccccc1OC(F)(F)F [IX]

MS binding IAPP [3]: ++ (40-74% binding=(++))
Structure (SMILES): CCCCCCCCNCC(O)CS(=O)(=O)O (stereo not shown) [JW]

MS binding IAPP [3]: +++ (75-100% binding=(+++))
Structure (SMILES): CC(C)CCNCC(O)CS(=O)(=O)O (stereo not shown) [KK, 2-hydroxy-3-[(3-methylbutyl)amino]-1-propane sulfonic acid]

MS binding IAPP [3]: +++ (75-100% binding=(+++))
Structure (SMILES): COc1ccc(CNCCCCS(=O)(=O)O)cc1OC [LM]

MS binding IAPP [1, 7]: + (20-39% binding=(+))
MS binding Aβ1-40 [2, 8]: ++ (40-74% binding=(++))
Structure (SMILES): O=S(=O)(O)CCCNc1ccc(F)cc1 [HT]

MS binding IAPP [3]: +++ (75-100% binding=(+++))
Structure (SMILES): O=S(=O)([O-])CC(O)CNCc1ccccc1.[Na+] (stereo not shown) [JY]

MS binding IAPP [3]: ++ (40-74% binding=(++))
Structure (SMILES): CC(C)(C)NCCCCS(=O)(=O)O [LD, 4-(tert-butylamino)-1-butanesulfonic acid]

MS binding IAPP [3]: ++ (40-74% binding=(++))
MS binding Aβ1-40 [2, 6]: ++ (40-74% binding=(++))
Structure (SMILES): CCCC(CO)NCCC(C)S(=O)(=O)O (racemic) [JL, 4-[(dl)-1-hydroxy-2-pentyl]amino-2-butane sulfonic acid]

MS binding IAPP [1, 7]: + (20-39% binding=(+))
MS binding Aβ1-40 [2, 8]: +++ (75-100% binding=(+++))
Structure (SMILES): CC(C)(C)OC(=O)NCCCS(=O)(=O)O [IA]

MS binding IAPP [1, 7]: ++ (40-74% binding=(++))
MS binding Aβ1-40 [2, 8]: +++ (75-100% binding=(+++))
Structure (SMILES): O=S(=O)(O)CCCN1CCC=C(c2ccccc2)C1 [IG]

MS binding IAPP [3]: +++ (75-100% binding=(+++))
Structure (SMILES): CCCCCCCCNCCC(C)S(=O)(=O)O (stereo not shown) [JG, 4-(octylamino)-2-butanesulfonic acid]

MS binding IAPP [1, 7]: + (20-39% binding=(+))
MS binding Aβ1-40 [2, 8]: +++ (75-100% binding=(+++))
Structure (SMILES): O=S(=O)(O)CCCNc1ccccc1O [HU]

MS binding IAPP [1, 7]: + (20-39% binding=(+))
MS binding Aβ1-40 [2, 8]: ++ (40-74% binding=(++))
Structure (SMILES): COc1ccc(NCCCS(=O)(=O)O)cc1 [HL]

MS binding IAPP [3]: ++ (40-74% binding=(++))
Structure (SMILES): O=S(=O)(O)CC(O)CN1CCCCC1 (stereo not shown) [KA, 2-hydroxy-3-piperidin-1-ylpropane-1-sulfonic acid]

MS binding IAPP [3]: + (20-39% binding=(+))
Structure (SMILES): O=S(=O)(O)CC(O)CNC1CC2CCC1C2 (stereo not shown) [KI, 3-(bicyclo[2.2.1]hept-2-ylamino)-2-hydroxy-1-propanesulfonic acid]

MS binding IAPP [3]: ++ (40-74% binding=(++))
Structure (SMILES): O=S(=O)(O)CCCCNC1CCCc2ccccc21 (stereo not shown) [LG]

MS binding IAPP [3]: + (20-39% binding=(+))
Structure (SMILES): CN(C)CC(O)CS(=O)(=O)[O-].[Na+] (stereo not shown) [JT, 3-(dimethylamino)-2-hydroxy-1-propane sulfonic acid, sodium salt]

From US8642801B2 (BHI Limited Partnership, priority 2003, dated 2014)
